In patent publication US20150176037A1, “OXIDOREDUCTASE REACTION CONTROL AND USE THEREOF” (Amano Enzyme Inc., priority 2012, published 2015):

Molecular target: T1, formate dehydrogenase (FDH) (Candida boidinii, UniProt O13437)
T1 sequence (O13437 1-364): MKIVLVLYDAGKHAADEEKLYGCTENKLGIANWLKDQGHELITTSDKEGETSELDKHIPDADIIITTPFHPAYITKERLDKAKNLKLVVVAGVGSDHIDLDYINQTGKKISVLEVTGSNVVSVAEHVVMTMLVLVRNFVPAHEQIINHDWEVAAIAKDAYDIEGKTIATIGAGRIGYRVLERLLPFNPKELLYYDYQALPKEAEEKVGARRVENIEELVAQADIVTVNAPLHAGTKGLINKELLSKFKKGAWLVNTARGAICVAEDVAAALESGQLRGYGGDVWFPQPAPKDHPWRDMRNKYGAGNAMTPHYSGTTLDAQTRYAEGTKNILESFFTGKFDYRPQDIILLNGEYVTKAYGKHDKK
Assay: FDH reaction system using methylviologen as artificial coenzyme
Assay type: biochemical
Conditions: 5.0 units FDH
Description: 2.2 mM of formic acid, 4.4 mM of methylviologen (MV^2+ was used), and 5.0 units of FDH were incubated, and NADH was detected (lower row, left).
The enzyme catalyzing the reaction converting formic acid into carbon dioxide, “formate dehydrogenase (FDH)” also catalyzes the reaction converting carbon dioxide into formic acid. It should be noted that the speed of the conversion reaction from carbon dioxide into formic acid (reverse reaction) is about one sixth the speed of the conversion reaction from formic acid into carbon dioxide (forward reaction) (FIG. 1). Suppression of the forward reaction is important for the formation of formic acid from carbon dioxide using this enzyme. The original coenzyme of FDH is NAD^+, but methylviologen may be used as an artificial coenzyme (mediator) (Non-Patent Literature 2). However, in the past report, only the interaction between FDH and methylviologen is electrochemically measured, so that no essential finding about the interaction is obtained. Therefore, we studied the characteristics of the […] reaction system using methylviologen as an artificial coenzyme in detail. […] Methylviologen is advantageous also in that it is readily photoreduced using a photosensitive molecule. In contrast, photoreduction of the original coenzyme, NAD^+ is not easy.

C[n+]1ccc(-c2cc[n+](C)cc2)cc1 [methylviologen, 1,1′-dimethyl-4,4′-bipyridinium dichloride]
conversion reaction from carbon dioxide into formic acid (reverse reaction) (2.2 mM CO2, 4.4 mM MV^2+ reduced): only proceeds | conversion reaction from formic acid into carbon dioxide (forward reaction) (2.2 mM formic acid, 4.4 mM MV^2+): does not proceed at all
